Series [1] is described as follows: Bioavailability after oral administration or intravenous injection in Wistar rats (free/total polyphenol in plasma, LC-MS/MS). The protocol: (§1) The experimental results described below were obtained on the basis of a study carried out in healthy human beings and in healthy Wistar rats weighing approximately 250 grams.
An acclimation period was observed before beginning the experiments.
The rats received an administration per os of a volume of 5 ml of a solution of active product.
(§2) With regard to taking the blood samples from the rats and from the human beings, the blood was collected in tubes internally coated with EDTA and was then centrifuged at 3000 rpm (revolutions per minute) at ambient temperature for 45 min, and then for 15 min at a temperature of 4° C. The plasma was then collected and stored at −70° C. before analysis.
(§3) The analytical technique (LC-MS/MS for Liquid Chromatography coupled to tandem Mass Spectrometry) for measuring the active substance in the blood was based on the method described by Mata-Bilbao et al., published in 2007 in the Journal of Agricultural and Food Chemistry, volume 55, page 8857.
(§4) The free (+)-catechin was extracted from the plasma with a solution of phosphoric acid, EDTA and ascorbic acid and was then purified by SPE (solid phase extraction); in particular, it is an Oasis™ HLB extraction which is analyzed by LC-MS/MS. The quantification was carried out according to a standard calibration procedure with (+/−)-catechin-2,3,4-^13C3 as internal standard (SI).
The procedure is identical with regard to the extraction and the quantification of free quercetin or ECGC in the blood.
With regard to the extraction and quantification of the total (+)-catechin, the procedure is the same as that applied to the free (+)-catechin, with the exception of the fact that an additional step prior to the purification by SPE is carried out.
Each of the mixtures is then solubilized in water.
Each of the mixtures is solubilized in water.

Series [2] is described as follows: Bioavailability after oral administration in human beings (free monomeric (+)-catechin in plasma, LC-MS/MS). Conditions: in vivo, po. How it is done:
as §1, §2, §3, §4
This complex salt is administered to a group A of 5 healthy volunteers.
This ct parameter makes it possible to calculate, from the data of table 1, the bioavailability of the (+)-catechin expressed in ng h/ml.

The subject of series [3] is gastric ulcers in Mastomys. The experiment in a line: Incidence of gastric ulcers and histamine level in the gastric mucosa in ovalbumin-sensitized Mastomys. It is filed as in vivo. Conditions: for histamine level (HL) in the gastric mucosa / number of animals exhibiting a gastric ulcer (NU): n = 12. How it is done: Mastomys in fact has a special system of cells which store histamine in the gastric mucosa; these cells can give rise to carcinoid tumors.
In this example, a sample of n=48 Mastomys are sensitized a first time by intraperitoneal injection of 3 μg of ovalbumin dissolved in 0.2 ml of saline solution containing 1 mg of aluminum hydroxide the ovalbumin which brings about anti-immunoglobulin E(IgE) and G(IgG) antibodies. After 7 days, a second injection of 1 mg of ovalbumin in 0.01 ml of saline solution is given in the gastric mucosa at the level of the corpus of the anesthetized animals, which causes an ulcerated lesion at the actual site of the injection.
The 48 rats are divided up into three groups: one of 24 and two of 12 individuals. The first group of 24 individuals (G1) received a placebo (concentrated NaCl solution at 0.15 M).
The histamine level is measured for the G1, G2 and G3 groups on the basis of a sample of n=12 individuals.

The subject of series [4] is cancer patients (lymphoplasmocytic lymphoma; clear cell renal carcinoma). Nature of the series: Treatment of patients suffering from cancer with 500 mg [C:Lys:HCl] complex salt tablet per day. Conditions: for IgM level in the blood: lymphoplasmocytic lymphoma, 500 mg/day. The class given is in vivo, human. How it is done:
In the first patient a lymphoplasmocytic lymphoma (of Waldenström macroglobulinemia type) was detected during a post-operative blood test on day D0. The diagnosis is based on the electrophoretic detection of a monoclonal peak of immunoglobulins (IgM). This diagnosis was reconfirmed and the peak was assayed during a second analysis using the same detection by electrophoresis.
These immunoglobulins are found at a high concentration in the blood and in the urine. They therefore constitute real tumor markers. The assaying thereof gives an account of the number of sick cells and the extent of the disease and, consequently, makes it possible to monitor its progression under treatment.
Successive blood tests gave the following data for the IgM assay (in mg per 100 ml of plasma):
In the second patient, a left subclavicular cervical adenopathy was first of all detected on day D0. Next, 2 weeks later, a left renal adenocarcinoma was detected for this patient, which was followed by a nephrectomy of the left kidney 3 days after the detection of the adenocarcinoma in this kidney.
Thereafter, on day D0+3 months, a left cervical lymph node dissection is performed on the patient. This procedure was followed by a series of 15 radiotherapy sessions.
Starting from day D0+15 months (that is to say on day DT), the patient was orally administered a tablet of 500 mg of (+)-catechin hydrochlorolysinate per day.

A further series deals with rat skin. Nature of the series: Total incorporation and incorporation into collagen of 3H-proline in the skin. The class given is in vivo, Wistar rats. Conditions: 100 mg/kg by gavage for 5 days; for level of incorporation into collagen (IC) of 3H-hydroxyproline in rat skin / level of total incorporation (IT) of 3H-hydroxyproline in rat skin: treated subgroup. How it is done: To do this, a study was carried out in vivo on a batch of 24 female Wistar rats weighing from 95 to 115 g, divided into two groups C and D, each of 12 rats. For each group, the radioactive 3H-hydroxyproline, the specific activity of which is 13.6 Ci/10^−3 mol, was administered to all the animals by intraperitoneal injection of proline-L-(5-3H) at a dose, relative to the weight of the individuals, of 1 mCi/kg, which represents an activity in terms of radioactive 3H-proline of 100 μCi/individual.
6 rats of each group received a treatment based on monomeric (+)-catechin by gavage in a proportion of 100 mg/kg for 5 days before sacrifice. […] The group C received monomeric (+)-catechin hydrochlorolysinate, while the group D received monomeric (+)-catechin ascorbolysinate.
In table 8, the level of incorporation is measured by the number of disintegrations of the radioactive 3H-hydroxyproline per minute (dpm) per mg of dry weight. The higher this number, the higher the concentration of 3H-hydroxyproline.
In this comparative example, a group E of 12 Wistar rats weighing from 95 to 115 g, in which radioactive 3H-hydroxyproline, the specific activity of which is 13.6 Ci/10^−3 mol, was administered to all the individuals by intraperitoneal injection of proline-L-(5-3H) at a dose, relative to the weight of the individuals, of 1 mCi/kg, which represents an activity in terms of radioactive 3H-proline of 100 ρCi/individual.
6 rats of each group received a treatment based on pure monomeric (+)-catechin by gavage in a proportion of 100 mg/kg for 5 days before sacrifice.
In table 9, the level of incorporation is measured by the number of disintegrations of the radioactive 3H-hydroxyproline per minute (dpm) per mg of dry weight. The higher this number, the higher the concentration of 3H-hydroxyproline.

[5] abbreviates: free catechin, per os, dose equivalent to 100 mg/kg catechin, 5 rats.
The mark [6] stands for this setting: oral administration versus placebo.

These results are taken from patent US20160095923A1, “ORAL COMPOSITION COMPRISNG (+)-CATECHIN” (VALORE, priority 2013, published 2016).

For `Cl.Cl.Cl.Cl.Cl.NCCCCC(N)C(=O)O.NCCCCC(N)C(=O)O.NCCCCC(N)C(=O)O.NCCCCC(N)C(=O)O.NCCCCC(N)C(=O)O.Oc1cc(O)c2c(c1)O[C@H](c1ccc(O)c(O)c1)[C@@H](O)C2.Oc1cc(O)c2c(c1)O[C@H](c1ccc(O)c(O)c1)[C@@H](O)C2` [1:2.5:2.5], in series [1] (rat, in vivo, 25 mg/kg), the “ct, reported value on the curve in FIG. 5” value (“ct, reported value” for short) came to 105 k ng min/ml.

As for `Cl.Cl.Cl.NCCCCC(N)C(=O)O.NCCCCC(N)C(=O)O.NCCCCC(N)C(=O)O.Oc1cc(O)c2c(c1)O[C@H](c1ccc(O)c(O)c1)[C@@H](O)C2` [1:3:3], in series [1] (rat, in vivo, 25 mg/kg), the “ct, calculated value” is recorded as 38 k ng min/ml.

In the case of `Cl.Cl.Cl.Cl.Cl.NCCCCC(N)C(=O)O.NCCCCC(N)C(=O)O.NCCCCC(N)C(=O)O.NCCCCC(N)C(=O)O.NCCCCC(N)C(=O)O.Oc1cc(O)c2c(c1)O[C@H](c1ccc(O)c(O)c1)[C@@H](O)C2` [1:5:5], the “ct, calculated value” in series [1] (rat, in vivo, 25 mg/kg) is recorded as 26 k ng min/ml.

Take `Cl.Cl.Cl.NCCCCC(N)C(=O)O.NCCCCC(N)C(=O)O.NCCCCC(N)C(=O)O.Oc1cc(O)c2c(c1)O[C@H](c1ccc(O)c(O)c1)[C@@H](O)C2.Oc1cc(O)c2c(c1)O[C@H](c1ccc(O)c(O)c1)[C@@H](O)C2` [C:Lys:HCl/1:1.5:1.5]: in series [1] (rat, in vivo, 25 mg/kg), the “ct, reported value” value is 142 k ng min/ml.

Consider `O=c1c(O)c(-c2ccc(O)c(O)c2)oc2cc(O)cc(O)c12` [QP, quercetin, reference compound], for which the “Δct^q (difference of ct to QP)” value in series [1] (Wistar, rat, in vivo, 25 mg/kg) was 0%.

Turning to `N=C(N)NCCCC(N)C(=O)O.Oc1cc(O)c2c(c1)O[C@H](c1ccc(O)c(O)c1)[C@@H](O)C2` [[C:Arg/1:1], Complex of Monomeric (+)-Catechin and of Arginine in a Molar Equivalence Ratio of 1:1], in series [1] (free catechin, per os, dose equivalent to 100 mg/kg catechin), the “Δct (difference of ct to CP)” value is “+21%”. In addition, in series [1] (setting [5]), the “T (max)” value is listed as 60 min.

With `NCCCCC(N)C(=O)O.Oc1cc(O)c2c(c1)O[C@H](c1ccc(O)c(O)c1)[C@@H](O)C2` [[C:Lys/1:1], Complex of Monomeric (+)-Catechin and of Lysine in a Molar Equivalence Ratio of 1:1], the “T (max)” value in series [1] (setting [5]) came to 60 min.

For `NCCCCC(N)C(=O)O.NCCCCC(N)C(=O)O.Oc1cc(O)c2c(c1)O[C@H](c1ccc(O)c(O)c1)[C@@H](O)C2` [[C:Lys/1:2], Complex of Monomeric (+)-Catechin and of Lysine in a Molar Equivalence Ratio of 1:2], the “T (max)” value in series [1] (setting [5]) was 120 min; in series [1] (free catechin, per os, equivalent to 25 mg/kg, 3 rats (comparative example 4)), 60 min; in series [1] (total (+)-catechin, per os, equivalent to 25 mg/kg, 3 rats), 60 min. In addition, the “Δct (difference of ct to CP)” value was “+17%” in series [1] (free catechin, per os, equivalent to 25 mg/kg (comparative example 4)) and “+24%” in series [1] (total (+)-catechin, per os, equivalent to 25 mg/kg).

With `Cl.Cl.NCCCCC(N)C(=O)O.NCCCCC(N)C(=O)O.Oc1cc(O)c2c(c1)O[C@H](c1ccc(O)c(O)c1)[C@@H](O)C2` [[C:Lys:HCl/1:2:2]], in series [1] (rat, in vivo, iv, 25 mg/kg), the “total plasma concentration (ct) of free monomeric (+)-catechin” value is recorded as 87 970 ng min/ml and the “total plasma concentration (ct) of total monomeric (+)-catechin” value is listed as 277 040 ng min/ml. Besides, the “total plasma concentration (ct) of total monomeric (+)-catechin” value in series [1] (rat, in vivo, po, 25 mg/kg) is recorded as 479 585 ng min/ml.

Turning to `Cl.Cl.NCCCCC(N)C(=O)O.NCCCCC(N)C(=O)O.O=c1c(O)c(-c2ccc(O)c(O)c2)oc2cc(O)cc(O)c12` [[Q:Lys:HCl/1:2:2], reference compound], in series [1] (rat, in vivo, 25 mg/kg), the “Δct^q (difference of ct to QP)” value was “+18%”.

Regarding `Cl.NCCCCC(N)C(=O)O.Oc1cc(O)c2c(c1)O[C@H](c1ccc(O)c(O)c1)[C@@H](O)C2` [monomeric (+)-catechin hydrochlorolysinate], the “ct, reported value” value in series [1] (rat, in vivo, 25 mg/kg) is reported as 127 k ng min/ml. For the same compound, in series [2], the “T (max)” value came to 30 min; the “increase in c (max) compared with pure monomeric (+)-catechin” value is given as “+103%”; the “increase in speed of passage into blood, T (max), compared with pure monomeric (+)-catechin” value is given as “+166%”. For the same compound, in series [3] (G2, per os 2×300 mg a day), the “histamine level (HL) in the gastric mucosa” value is given as 37.91 ± 3.73 10^−6 mg/kg of protein and the “number of animals exhibiting a gastric ulcer (NU)” value is 5. Besides, in series [3] (G3, intraperitoneally 100 mg), the “histamine level (HL) in the gastric mucosa” value is recorded as 34.98 ± 3.52 10^−6 mg/kg of protein and the “number of animals exhibiting a gastric ulcer (NU)” value is reported as 6. In addition, in series [3] (setting [6]), the “decrease in the histamine level in the gastric mucosa” value is −18% and the “decrease in the number of animals exhibiting a gastric ulcer” value was −72%. In addition, the “IgM level in the blood” value in series [4] (first patient, DT + 4 months) is 2417 mg/100 ml. In series [4] (first patient, DT + 9 months), the “IgM level in the blood” value worked out at 2410 mg/100 ml. Further, the “IgM level in the blood” value in series [4] (first patient, DT + 15 months) came to 2412 mg/100 ml. Also, the “clinical course of IgM level under treatment” value in series [4] (first patient, taken for a year and a half) is listed as “stabilization below the maximum detected on day DT”. Moreover, the clinical outcome in series [4] (second patient, clear cell renal carcinoma, 500 mg/day from DT) was “stabilized the patient's condition”. In the series on rat skin, the “increase in the level of incorporation versus control” value is “+15%”, the “level of incorporation into collagen (IC) of 3H-hydroxyproline in rat skin” value was found to be 1343 ± 48 dpm/mg and the “level of total incorporation (IT) of 3H-hydroxyproline in rat skin” value came to 6248 ± 124 dpm/mg.

As to `O=C(O[C@@H]1Cc2c(O)cc(O)cc2O[C@@H]1c1cc(O)c(O)c(O)c1)c1cc(O)c(O)c(O)c1` [pure EGCG, epigallocatechin gallate, reference compound], the “plasma levels measured (below reliable limits of detection)” value in series [1] (free EGCG, per os, equivalent to 25 mg/kg polyphenol) is reported as “below 250 ng/ml”.

On to monomeric (+)-catechin ascorbolysinate, for which, in the series on rat skin, the “increase in the level of incorporation versus control” value was “+14%”, the “level of incorporation into collagen (IC) of 3H-hydroxyproline in rat skin” value is given as 1117 ± 49 dpm/mg and the “level of total incorporation (IT) of 3H-hydroxyproline in rat skin” value is recorded as 5112 ± 259 dpm/mg.
